Key:
[1] = target: T1, human TDO (TDO-expressing HEK293 cells) (Homo sapiens, UniProt P48775); assay: Cell based kynurenine assay, TDO-expressing HEK293 cell clones; settings: TDO-expressing HEK293 cells, 24 hours incubation; geometric mean; read-out: HEK293 TDO Kynurenine GMean IC50 (μM) (Cellular Assay)
T1 construct: expressed in transfected cells
Method in brief: (§1)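 HEK293 clones stably expressing human IDO1 or human TDO (CMV promoter), 2.5×10^4 cells/well, given serial compound dilutions for 24 h. Kynurenine measured in supernatant; inhibition relative to cell/0.2% DMSO and media-only controls. IC50 by nonlinear regression.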

[2] = target: T2, human IDO (IDO1-expressing HEK293 cells) (Homo sapiens, UniProt P14902); assay: Cell based kynurenine assay, IDO1-expressing HEK293 cell clones; settings: IDO1-expressing HEK293 cells, 24 hours incubation; geometric mean; read-out: HEK293 IDO1 Kynurenine GMean IC50 (μM) (Cellular Assay)
T2 construct: expressed in transfected cells
Method in brief: as §1

[3] = target: T3, Human Tryptophan 2,3-dioxygenase (TDO) (Homo sapiens, UniProt P48775); assay: Human TDO enzymatic assay (kynurenine level); assay type: biochemical; settings: 1 nM TDO, 350 μM L-Trp; geometric mean; read-out: TDO GMean: IC50 (μM) (Biochemical Assay)
T3 construct: His tag (N); made in house; host or cells: E. coli
Method in brief: (§2)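 N-terminally His-tagged enzymes expressed in E. coli were run in 50 mM sodium phosphate pH 6.5 with 10 mM ascorbate, catalase and Tween 20. IDO: 6 nM enzyme, 10 μM L-Trp, 5 μM methylene blue, 20 min RT. TDO: 1 nM enzyme, 350 μM L-Trp, 0.4 μM methylene blue, 70 min RT.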

[4] = target: T4, Human Indoleamine 2,3-dioxygenase (IDO) (Homo sapiens, UniProt P14902); assay: Human IDO enzymatic assay (kynurenine level); assay type: biochemical; settings: 6 nM IDO, 10 μM L-Trp; geometric mean; read-out: IDO1 GMean: IC50 (μM) (Biochemical Assay)
T4 construct: His tag (N); made in house; host or cells: E. coli
Method in brief: as §2

T4 sequence (P14902 whole entry): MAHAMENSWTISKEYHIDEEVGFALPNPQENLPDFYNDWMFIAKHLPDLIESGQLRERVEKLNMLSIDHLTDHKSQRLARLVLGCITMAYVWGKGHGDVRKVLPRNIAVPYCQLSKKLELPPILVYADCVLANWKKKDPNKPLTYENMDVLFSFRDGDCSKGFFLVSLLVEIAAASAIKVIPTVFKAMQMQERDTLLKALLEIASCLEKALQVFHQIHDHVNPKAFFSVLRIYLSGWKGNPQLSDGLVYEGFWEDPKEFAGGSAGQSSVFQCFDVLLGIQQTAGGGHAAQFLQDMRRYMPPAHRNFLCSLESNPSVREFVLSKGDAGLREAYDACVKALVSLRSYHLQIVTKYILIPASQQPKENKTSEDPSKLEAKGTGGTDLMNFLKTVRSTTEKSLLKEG
T2 sequence (P14902 whole entry): as above
T3 sequence (P48775 whole entry): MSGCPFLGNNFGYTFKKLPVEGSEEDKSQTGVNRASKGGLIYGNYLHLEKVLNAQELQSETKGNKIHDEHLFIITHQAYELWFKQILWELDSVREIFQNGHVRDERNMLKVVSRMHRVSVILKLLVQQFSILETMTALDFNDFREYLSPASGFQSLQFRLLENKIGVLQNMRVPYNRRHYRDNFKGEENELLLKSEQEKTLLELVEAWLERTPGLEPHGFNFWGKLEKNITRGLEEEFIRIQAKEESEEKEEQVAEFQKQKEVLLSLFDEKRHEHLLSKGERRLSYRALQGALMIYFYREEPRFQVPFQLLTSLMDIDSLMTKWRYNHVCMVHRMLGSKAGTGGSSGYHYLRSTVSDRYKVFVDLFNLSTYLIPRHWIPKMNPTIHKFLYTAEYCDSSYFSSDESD
T1 sequence (P48775 whole entry): as above

Row | Structure (SMILES) | IC50 [1] | IC50 [2] | IC50 [3] | IC50 [4]
1 | CC(C)(C(O)c1cc(Cl)cc2cn[nH]c12)N1CCCCC1 (stereo not shown) [Compound P-0216, 1-(5-chloro-1H-indazol-7-yl)-2-methyl-2-(piperidin-1-yl)propan-1-ol] | > 10 µM | > 10 µM | 10 to 100 µM | > 200 µM
2 | O=C(O)C1CCC(C(O)c2cc(Cl)cc3cn[nH]c23)CC1 (stereo not shown) [Compound P-0219, 4-((5-chloro-1H-indazol-7-yl)(hydroxy)methyl)cyclohexane-1-carboxylic acid] | > 10 µM | > 10 µM | 0.0001 to 10 µM | 10 to 100 µM
3 | CS(=O)(=O)N1CC(C(O)c2cc(Cl)cc3cn[nH]c23)C1 (stereo not shown) [Compound P-0226, (5-chloro-1H-indazol-7-yl)(1-(methylsulfonyl)azetidin-3-yl)methanol] | > 10 µM | 0.0001 to 10 µM | 0.0001 to 10 µM | 0.0001 to 10 µM
4 | CN(C)C(C)(C)C(O)c1cc(Cl)cc2cn[nH]c12 (stereo not shown) [Compound P-0230, 1-(5-chloro-1H-indazol-7-yl)-2-(dimethylamino)-2-methylpropan-1-ol] | > 10 µM | > 10 µM | 10 to 100 µM | 10 to 100 µM
5 | CC(C)(C(O)c1cc(Cl)cc2cn[nH]c12)N1CCCC1 (stereo not shown) [Compound P-0231, 1-(5-chloro-1H-indazol-7-yl)-2-methyl-2-(pyrrolidin-1-yl)propan-1-ol] | > 10 µM | > 10 µM | 10 to 100 µM | 100 to 200 µM
6 | CC(C)(N)CC(O)c1cc(Cl)cc2cn[nH]c12 (stereo not shown) [Compound P-0233, 3-amino-1-(5-chloro-1H-indazol-7-yl)-3-methylbutan-1-ol] | > 10 µM | > 10 µM | 10 to 100 µM | 10 to 100 µM
7 | Cc1ccc2cn[nH]c2c1C(O)C(C)(C)C1CCOCC1 (stereo not shown) [Compound P-0234, 2-methyl-1-(6-methyl-1H-indazol-7-yl)-2-(tetrahydro-2H-pyran-4-yl)propan-1-ol] | 0.0001 to 10 µM | 0.0001 to 10 µM | 0.0001 to 10 µM | 0.0001 to 10 µM
8 | OC(c1c(F)c(Cl)cc2cn[nH]c12)C1(C2CCOCC2)CC1 (stereo not shown) [Compound P-0235, (5-chloro-6-fluoro-1H-indazol-7-yl)(1-(tetrahydro-2H-pyran-4-yl)cyclopropyl)methanol] | 0.0001 to 10 µM | 0.0001 to 10 µM | 0.0001 to 10 µM | 0.0001 to 10 µM
9 | CC1(C(O)c2cc(Cl)cc3cn[nH]c23)CCOCC1 (stereo not shown) [Compound P-0236, (5-chloro-1H-indazol-7-yl)(4-methyltetrahydro-2H-pyran-4-yl)methanol] | 0.0001 to 10 µM | 0.0001 to 10 µM | 0.0001 to 10 µM | 0.0001 to 10 µM
10 | OC(c1c(Cl)c(Cl)cc2cn[nH]c12)C1CCC1 (stereo not shown) [Compound P-0237, cyclobutyl(5,6-dichloro-1H-indazol-7-yl)methanol] | 0.0001 to 10 µM | 0.0001 to 10 µM | 0.0001 to 10 µM | 0.0001 to 10 µM
11 | OC(c1c(Cl)c(Cl)cc2cn[nH]c12)C1(C2CCCCC2)CC1 (stereo not shown) [Compound P-0238, (1-cyclohexylcyclopropyl)(5,6-dichloro-1H-indazol-7-yl)methanol] | 0.0001 to 10 µM | 0.0001 to 10 µM | 0.0001 to 10 µM | 0.0001 to 10 µM
12 | CC(C)(C)C(O)c1c(Cl)c(Cl)cc2cn[nH]c12 (stereo not shown) [Compound P-0239, 1-(5,6-dichloro-1H-indazol-7-yl)-2,2-dimethylpropan-1-ol] | 0.0001 to 10 µM | 0.0001 to 10 µM | 0.0001 to 10 µM | 0.0001 to 10 µM
13 | OC(c1cc(Cl)cc2cn[nH]c12)C1CC2CCC1C2 (stereo not shown) [Compound P-0240, bicyclo[2.2.1]heptan-2-yl(5-chloro-1H-indazol-7-yl)methanol] | 0.0001 to 10 µM | 0.0001 to 10 µM | 0.0001 to 10 µM | 0.0001 to 10 µM
14 | CC1(C)OC(C)(C)C12CC(O)(c1cc(Cl)cc3cn[nH]c13)C2 [Compound P-0243, 6-(5-chloro-1H-indazol-7-yl)-1,1,3,3-tetramethyl-2-oxaspiro[3.3]heptan-6-ol] | 0.0001 to 10 µM | 0.0001 to 10 µM | 0.0001 to 10 µM | 0.0001 to 10 µM

Other lines, results leading:

Row | IC50 [1] | IC50 [2] | IC50 [3] | IC50 [4] | Structure (SMILES)
15 | 0.0001 to 10 µM | 0.0001 to 10 µM | 0.0001 to 10 µM | 0.0001 to 10 µM | CC1(C(O)c2cc(Cl)cc3cn[nH]c23)COC1 (stereo not shown) [Compound P-0211, (5-chloro-1H-indazol-7-yl)(3-methyloxetan-3-yl)methanol]
16 | 0.0001 to 10 µM | 0.0001 to 10 µM | 0.0001 to 10 µM | 0.0001 to 10 µM | CC(C)(C)C(O)c1cc(Cl)cc2cn[nH]c12 (stereo not shown) [Compound P-0212, 1-(5-chloro-1H-indazol-7-yl)-2,2-dimethylpropan-1-ol]
17 | 0.0001 to 10 µM | 0.0001 to 10 µM | 0.0001 to 10 µM | 0.0001 to 10 µM | CC(C)(CCC#N)C(O)c1cc(Cl)cc2cn[nH]c12 (stereo not shown) [Compound P-0213, 5-(5-chloro-1H-indazol-7-yl)-5-hydroxy-4,4-dimethylpentanenitrile]
18 | 0.0001 to 10 µM | 0.0001 to 10 µM | 0.0001 to 10 µM | 0.0001 to 10 µM | CC(C)(C)C1CC(O)(c2cc(Cl)cc3cn[nH]c23)C1 (stereo not shown) [Compound P-0214, 3-(tert-butyl)-1-(5-chloro-1H-indazol-7-yl)cyclobutan-1-ol]
19 | 0.0001 to 10 µM | 0.0001 to 10 µM | 0.0001 to 10 µM | 0.0001 to 10 µM | CC(C)(C(O)c1cc(Cl)cc2cn[nH]c12)N1CCOCC1 (stereo not shown) [Compound P-0215, 1-(5-chloro-1H-indazol-7-yl)-2-methyl-2-morpholinopropan-1-ol]
20 | 0.0001 to 10 µM | 0.0001 to 10 µM | 0.0001 to 10 µM | 0.0001 to 10 µM | CC(C)(C1CCOCC1)C(O)c1cc(Cl)c(F)c2cn[nH]c12 (stereo not shown) [Compound P-0217, 1-(5-chloro-4-fluoro-1H-indazol-7-yl)-2-methyl-2-(tetrahydro-2H-pyran-4-yl)propan-1-ol]
21 | 0.0001 to 10 µM | 0.0001 to 10 µM | 0.0001 to 10 µM | 0.0001 to 10 µM | OC(c1cc(Cl)c(F)c2cn[nH]c12)C(F)(F)C1CCOCC1 (stereo not shown) [Compound P-0218, 1-(5-chloro-4-fluoro-1H-indazol-7-yl)-2,2-difluoro-2-(tetrahydro-2H-pyran-4-yl)ethan-1-ol]
22 | 0.0001 to 10 µM | 0.0001 to 10 µM | 0.0001 to 10 µM | 0.0001 to 10 µM | CC(C)(C1CCOCC1)C(O)c1c(Cl)c(Cl)cc2cn[nH]c12 (stereo not shown) [Compound P-0220, 1-(5,6-dichloro-1H-indazol-7-yl)-2-methyl-2-(tetrahydro-2H-pyran-4-yl)propan-1-ol]
23 | 0.0001 to 10 µM | 0.0001 to 10 µM | 0.0001 to 10 µM | 0.0001 to 10 µM | OC(c1cc(Cl)cc2cn[nH]c12)C1(C2CCOCC2)CC1 (stereo not shown) [Compound P-0221, (5-chloro-1H-indazol-7-yl)(1-(tetrahydro-2H-pyran-4-yl)cyclopropyl)methanol]
24 | 0.0001 to 10 µM | 0.0001 to 10 µM | 0.0001 to 10 µM | 0.0001 to 10 µM | CC(F)(F)C1(C(C)(F)F)CC(O)(c2cc(Cl)cc3cn[nH]c23)C1 [Compound P-0222, 1-(5-chloro-1H-indazol-7-yl)-3,3-bis(1,1-difluoroethyl)cyclobutan-1-ol]
25 | 0.0001 to 10 µM | 0.0001 to 10 µM | 0.0001 to 10 µM | 0.0001 to 10 µM | CCC1(C(O)c2cc(Cl)cc3cn[nH]c23)CCC1 (stereo not shown) [Compound P-0223, (5-chloro-1H-indazol-7-yl)(1-ethylcyclobutyl)methanol]
26 | 0.0001 to 10 µM | 0.0001 to 10 µM | 0.0001 to 10 µM | 0.0001 to 10 µM | CC(C)(C1CC1)C(O)c1cc(Cl)cc2cn[nH]c12 (stereo not shown) [Compound P-0224, 1-(5-chloro-1H-indazol-7-yl)-2-cyclopropyl-2-methylpropan-1-ol]
27 | 0.0001 to 10 µM | 0.0001 to 10 µM | 0.0001 to 10 µM | 0.0001 to 10 µM | OC(c1cc(Cl)cc2cn[nH]c12)C1(C2CC2)CC1 (stereo not shown) [Compound P-0225, [1,1′-bi(cyclopropan)]-1-yl(5-chloro-1H-indazol-7-yl)methanol]
28 | 0.0001 to 10 µM | 0.0001 to 10 µM | 0.0001 to 10 µM | 0.0001 to 10 µM | OC(c1cc(Cl)cc2cn[nH]c12)C12CCC(F)(CC1)CC2 (stereo not shown) [Compound P-0227, (5-chloro-1H-indazol-7-yl)(4-fluorobicyclo[2.2.2]octan-1-yl)methanol]
29 | 0.0001 to 10 µM | 0.0001 to 10 µM | 0.0001 to 10 µM | 0.0001 to 10 µM | CC1(C(O)c2cc(Cl)cc3cn[nH]c23)CC2CC2C1 (stereo not shown) [Compound P-0228, (5-chloro-1H-indazol-7-yl)(3-methylbicyclo[3.1.0]hexan-3-yl)methanol]
30 | 0.0001 to 10 µM | 0.0001 to 10 µM | 0.0001 to 10 µM | 0.0001 to 10 µM | OC(c1cc(Cl)cc2cn[nH]c12)C12CCC(CC1)C2 (stereo not shown) [Compound P-0229, bicyclo[2.2.1]heptan-1-yl(5-chloro-1H-indazol-7-yl)methanol]
31 | 0.0001 to 10 µM | 0.0001 to 10 µM | 0.0001 to 10 µM | 0.0001 to 10 µM | CC(C)(C1CCOCC1)C(O)c1c(F)c(Cl)cc2cn[nH]c12 (stereo not shown) [Compound P-0232, 1-(5-chloro-6-fluoro-1H-indazol-7-yl)-2-methyl-2-(tetrahydro-2H-pyran-4-yl)propan-1-ol]

Source: US10508085B2, “Compounds and methods for IDO and TDO modulation, and indications therefor” (Plexxikon Inc., priority 2016, dated 2019)
